Measured values taken from patent publication US11964971B2, “Methods and compositions for modulating splicing” (Skyhawk Therapeutics, Inc., priority 2019, dated 2024).
Like-named read-outs stand apart in the source and are kept apart here.

Experiments:
SMN protein = SMN protein assay (MSD) in SMA patient fibroblasts (GM03813); assay type: cell-based, human
How it was run: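 Absolute SMN protein measured by Mesoscale Discovery assay in lysates, calibrated per plate with SMN standards (1–19.5 μg/ml). Cells: GM03813 SMA fibroblasts, 7000/well, 48 h compound exposure at doses of 2.5 μM down to 0.6 nM.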

[1] = tested on: MDR1-MDCK cell monolayers; test: MDCK-MDR1 permeability assay, blood-brain-barrier penetration potential
MDR1 [2] = test: as above; conditions: dog, MDCK-MDR1, pH 7.4
MDR1 (P-gp) [3] = test: as above; conditions: dog, MDCK-MDR1, pH 7.4, MDCK-MDR1 Efflux Ratio
MDR1 [4] = test: in vitro; conditions: dog
MDR1 (P-gp) [5] = test: in vitro; conditions: dog, MDCK-MDR1, pH 7.4
[6] = tested on: MDR1-MDCK cell monolayers; conditions: dog, MDCK-MDR1, 120 min, 5 μM, pH 7.4

| Compound | EC50 (SMN protein) [nM] | MDCK-MDR1: % Recov A-B (%) [1] [%] | MDCK-MDR1: % Recov B-A (%) [1] [%] | Papp A→B at 120 min, 5 μM (MDR1 [2]) [×10⁻⁶ cm/s] | Papp B→A at 120 min, 5 μM (MDR1 [2]) [×10⁻⁶ cm/s] | efflux ratio at 120 min, 5 μM (MDR1 (P-gp) [3]) | Papp A→B at 120 min, 5 μM (MDR1 [4]; MDCK-MDR1, pH 7.4, MDCK-MDR1: Papp A-B (10^−6, cm/s)) [×10⁻⁶ cm/s] | Papp B→A at 120 min, 5 μM (MDR1 [4]; MDCK-MDR1, pH 7.4, MDCK-MDR1: Papp B-A (10^−6, cm/s)) [×10⁻⁶ cm/s] | efflux ratio at 120 min, 5 μM (MDR1 (P-gp) [5]) | MDCK-MDR1: % Recov A-B (%) [6] [%] | MDCK-MDR1: % Recov B-A (%) [6] [%] |
| --- | --- | --- | --- | --- | --- | --- | --- | --- | --- | --- | --- |
| CN(c1cnc(-c2ccc(-c3cn[nH]c3)cc2O)cn1)[C@H]1C[C@]2(C)CC[C@@](C)(N2)[C@H]1F [Compound 22E2, 2-(5-(((1R,2S,3S,5S)-2-fluoro-1,5-dimethyl-8-azabicyclo[3.2.1]octan-3-yl)(methyl)amino)pyrazin-2-yl)-5-(1H-pyrazol-4-yl)phenol] | 501 to 10000 | 66 | 81 | 3.49 | 34.5 | 10 | – | – | – | – | – |
| CN(c1cnc(-c2ccc(-c3cn[nH]c3)cc2O)cn1)[C@@H]1C[C@@]2(C)CC[C@](C)(N2)[C@@H]1F [Compound 22E1, 2-(5-(((1S,2R,3R,5R)-2-fluoro-1,5-dimethyl-8-azabicyclo[3.2.1]octan-3-yl)(methyl)amino)pyrazin-2-yl)-5-(1H-pyrazol-4-yl)phenol] | 501 to 10000 | 63 | 78 | 4.14 | 39.8 | 10 | – | – | – | – | – |
| CNC(=O)/C=C/c1cc(O)c(-c2cnc(N(C3CC3)[C@H]3C[C@]4(C)CC[C@@](C)(N4)[C@H]3F)cn2)cc1F (single isomer, unassigned) [Compound 79E2] | – | – | – | – | – | – | 2.05 | 52.7 | 26 | 91 | 89 |
